In patent publication US11517587B2, “Drug therapy to inhibit chemotherapy-induced adverse effects and related pharmaceutical compositions, diagnostics, screening techniques and kits” (YALE UNIVERSITY, priority 2011, dated 2022):

Legend:
NCS-1 [1] = test: NCS-1 levels by Western blot in Taxol-treated SHSY-5Y neuroblastoma cells; format: cell-based
Source text: (§1) Data shown are the average of three experiments.
as §1
More specifically, AV411 (ibudilast) is a drug used in several Asian countries for treatment of bronchial asthma, cerebrovascular disorders, post-stroke dizziness, and ocular allergies. In accordance with the Materials and Methods section of PNAS, Jun.
as §1

SHSY-5Y cells = test: Intracellular Ca2+ signal in stimulated SHSY-5Y cells; format: cell-based
Procedure: FIG. 2A: Protection of the intracellular calcium signal by 1 uM AV411. […] After 200 seconds thapsigargin (TG, an inhibitor of the intracellular Ca^2+ pump) was added to indicate that the intracellular stores were filled and the cells were viable (second arrow). […] Each line represents the average of at least 45 cells (at least 15 cells measured in three separate experiments).
FIG. 2B: Protection of the intracellular calcium signal by 500 uM LiCl. Representative Ca^2+ responses of SHSY-5Y cells stimulated with 200 nM carbachol (at first arrow) to induce a transient release of Ca^2+ from intracellular stores. After 200 seconds thapsigargin (TG, an inhibitor of the intracellular Ca^2+ pump) was added to indicate that the intracellular stores were filled and the cells were viable (second arrow). […] Addition of 500 uM LiCl alone (pink trace)induced a small decrease in the Ca^2+ transient. […] Each line represents the average of at least 45 cells (at least 15 cells measured in three separate experiments.
FIG. 3B: Protection of the intracellular calcium signal by 5.0 mM LiCl. Representative Ca^2+ responses of SHSY-5Y cells treated with 800 ng/mL Taxol for 6 hours in the presence and absence of 5.0 mM. The experiment is the same as described for FIG. 2 except that 5 mM LiCl was used.
[…] After 200 seconds thapsigargin (TG, an inhibitor of the intracellular Ca^2+ pump) was added to indicate that the intracellular stores were filled and the cells were viable (second arrow). […] Each line represents the average of at least 45 cells (at least 15 cells measured in three separate experiments).
Intracellular Ca^2+ signals monitored in intact cells were also found to be reduced by treatment with Taxol for 6 hours (FIGS. 2B and 3B; compare control treatment (black trace) with Taxol treatment (blue trace) in both figures).

[2] = tested on: lung cancer cell line (H1975); test: Xenograft tumor volume in nude mice; format: in vivo; details: LiCl in the presence of Taxol treatment, short time after initiation of co-therapy
Procedure: FIG. 4B: tumor volume effect.
One or more murine models as described in Richmond, et al., Mouse xenograft models vs GEM models for human cancer therapeutics, Dis Model Mech. 2008 September-October; 1(2-3): 78-82, are prepared. As explained by Richmond, et al., “[t]hese models are used to investigate the factors involved in malignant transformation, invasion and metastasis, as well as to examine response to therapy. One of the most widely used models is the human tumor xenograft. […] For example, the xenograft will be readily accepted by athymic nude mice, severely compromised immunodeficient (SCID) mice, or other immunocompromised mice (Morton and Houghton, 2007). Depending upon the number of cells injected, or the size of the tumor transplanted, the tumor will develop over 1-8 weeks (or in some instances 1-4 months, or longer), and the response to appropriate therapeutic regimes can be studied in vivo.”
Pursuant to the above protocol, a lung cancer cell line (H1975) was injected into nude mice; after two weeks tumors were large enough to measure. Exemplary dosages for use in the above murine models include 25 mg/kg taxol injected 1 time per week (2×), lithium (12.8 mg/kg) injected 1 hour prior to paclitaxel injection. Protection of NCS-1 levels and intracellular Ca^2+ signals in cells is evaluated using techniques as described in Examples 1-3.

[3] = biological target: NCS-1 / inositol 1,4,5 trisphosphate receptor (InsP3R) (Homo sapiens, UniProt P62166); test: NCS-1 binding to the InsP3R
Source text: Based upon our observations regarding the activity of lithium carbonate, valproic acid, and chlorpromazine, we believe that there are additional drugs in these classes that will have the desired effect of preventing chemotherapy-induced polyneuropathy such as, but not limited to, […].

NCS-1 [4] = biological target: NCS-1 (Homo sapiens, UniProt P62166); test: Tryptophan fluorescence binding to NCS-1
microtubule assembly = test: Microtubule assembly; format: biochemical
Procedure: FIG. 5: Paclitaxel speeds up microtubule assembly.
The relative effects of paclitaxel-LiCl and paclitaxel-AV411 co-administration on microtubule assembly were also determined.

mice [5] = test: Paclitaxel-induced myelin damage in mice; format: in vivo; details: paclitaxel-treated mice without Li-cotherapy
calpain = test: Calpain activity after low dose paclitaxel; format: in vivo, mice
Source text: FIG. 3: Low dose paclitaxel increases calpain activity. Lithium treatment prevents activation of calpain.

calcium release = test: Calcium release after low dose paclitaxel; format: in vivo, mice; details: low doses of paclitaxel
Source text: FIG. 11: Low dose paclitaxel decreases calcium release Lithium treatment prevents loss of calcium release.

NCS-1 [6] = test: NCS-1 levels in peripheral nerve and brain after low dose paclitaxel; format: in vivo, mice
Source text: FIG. 12: Low dose paclitaxel decreases NCS-1 levels in peripheral nerve, but not brain NCS-1 expression is maintained with lithium.

mice [7] = test: Echocardiograms of mice injected with taxol; format: in vivo
Source text: FIG. 5B: The bottom three panels of the figure attached, is from echocardiograms done on mice injected with taxol. These are the same mice for which the xenograph study was done (shown at the top of the figure). […] These are both measurements of contractility. […] Heart rate was not altered.
Taxol causes cardiac arrhythmias. […] The recent data shown in the bottom three panels of the FIG. 5B, is information compiled from echocardiograms done on mice injected with taxol. These are the same mice upon which the xenograph study was done (shown at the top of the figure). […] These are both measurements of contractility, which was reversed by lithium pre-treatment. […] Heart rate was not altered. The cardiologist who performed the experiment at the request of the inventor(s) was quite impressed and is considering studies in human patients. There are studies in the literature showing that chemotherapy induced changes acutely in contractility can develop into long term heart rhythm problems.

[8] = tested on: calcium signaling in cells; test: Protection of calcium signaling by combination treatment / calpastatin expression; format: cell-based; details: combination treatment with Li and calpastatin (expression of calpastatin in cells)
Source text: FIG. 7: Combination treatment protects calcium signaling.
FIG. 8: Expression of calpastatin, a natural calpain antagonist, protects calcium signaling in cells.

NCS-1 / inositol 1,4,5 trisphosphate receptor (InsP3R), sequence (P62166 2-190 limits assumed, species assumed): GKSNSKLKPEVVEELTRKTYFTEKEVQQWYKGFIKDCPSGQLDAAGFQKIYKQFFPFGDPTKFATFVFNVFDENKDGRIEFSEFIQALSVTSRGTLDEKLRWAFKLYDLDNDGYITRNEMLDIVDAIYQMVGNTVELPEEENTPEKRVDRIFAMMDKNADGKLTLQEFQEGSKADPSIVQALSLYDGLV
NCS-1 (Homo sapiens, UniProt P62166), sequence (P62166 whole entry, species assumed): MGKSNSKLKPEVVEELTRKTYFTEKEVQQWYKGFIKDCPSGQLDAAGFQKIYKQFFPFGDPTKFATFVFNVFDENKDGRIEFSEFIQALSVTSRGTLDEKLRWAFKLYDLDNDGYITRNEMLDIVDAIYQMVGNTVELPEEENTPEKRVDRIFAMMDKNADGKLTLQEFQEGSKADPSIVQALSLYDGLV

Q: What does the source list for `[Cl-].[Li+]` [LiCl, lithium chloride]?
A: NCS-1 levels (Western blot) (NCS-1 [1]; 500 uM and 5.0 mM LiCl in the presence of Taxol, 6 hours, SHSY-5Y): protected from the Taxol-induced degradation of NCS-1; NCS-1 levels (Western blot) (NCS-1 [1]; LiCl alone (500 uM, 5.0 mM)): did not reduce NCS-1 levels; Intracellular Ca2+ signals (SHSY-5Y cells; 500 uM or 5.0 mM LiCl in the presence of Taxol): signals similar to that of non-treated cells; Intracellular Ca2+ signals (SHSY-5Y cells; LiCl alone): decreased the intracellular signals, but not to the extent seen with Taxol treatment; Tumor volume [2]: statistically significant decrease in tumor volume

Q: Which “NCS-1 binding to InsP3R” value [3] does the source give for `CN(C)CCCN1c2ccccc2Sc2ccc(Cl)cc21` [chlorpromazine] here?
A: prevent neuronal calcium sensor 1 (NCS-1) from binding to the inositol 1,4,5 trisphosphate receptor (InsP3R)

Q: `O=C([O-])[O-].[Li+].[Li+]` [lithium carbonate] was tested. Which “NCS-1 binding to InsP3R” value [3] did it give?
A: prevent neuronal calcium sensor 1 (NCS-1) from binding to the inositol 1,4,5 trisphosphate receptor (InsP3R)

Q: For `CC(=O)O[C@H]1C(=O)[C@@]2(C)[C@H]([C@H](OC(=O)c3ccccc3)[C@]3(O)C[C@H](OC(=O)[C@H](O)[C@@H](NC(=O)c4ccccc4)c4ccccc4)C(C)=C1C3(C)C)[C@]1(OC(C)=O)CO[C@@H]1C[C@@H]2O` [paclitaxel], which “NCS-1 levels (Western blot)” value (NCS-1 [1]; paclitaxel (Taxol) alone, 800 ng/mL, 6 hours) is on record?
A: decreased NCS-1 levels

Q: What about the “NCS-1 levels (Western blot)” value (NCS-1 [1]; paclitaxel (Taxol) alone, 800 ng/mL, 6 hours, listed as Taxol) of the same molecule?
A: NCS-1 degradation

Q: What about the “Ca2+ response” value (SHSY-5Y cells; Taxol 800 ng/mL for 6 hours, stimulated with 1 uM ATP) of the same molecule?
A: response lower in amplitude than non-treated cells

Q: And the “Intracellular Ca2+ signals” value (SHSY-5Y cells; Taxol for 6 hours, 200 nM carbachol)?
A: reduced

Q: And the “Binding to NCS-1” value (NCS-1 [4])?
A: binds to NCS-1

Q: And the Microtubule assembly (microtubule assembly)?
A: accelerates microtubule assembly

Q: And the Myelin damage (mice [5])?
A: evident myelin damage enlarged structures

Q: And the Calpain activity (calpain)?
A: increased calpain activity

Q: What about the Calcium release (calcium release) of the same molecule?
A: decreased calcium release

Q: And the “NCS-1 levels in peripheral nerve and brain” value (NCS-1 [6])?
A: decreased NCS-1 levels in peripheral nerve, but not in the brain

Q: What about the “End diastolic diameter and fractional shortening (contractility)” value (mice [7]; 1 hour after taxol injection) of the same molecule?
A: end diastolic diameter and fractional shortening were altered

Q: And the Heart rate (mice [7]; after taxol injection)?
A: not altered

Q: For `CCCC(CCC)C(=O)O` [valproic acid], which “NCS-1 binding to InsP3R” value [3] is on record?
A: prevent neuronal calcium sensor 1 (NCS-1) from binding to the inositol 1,4,5 trisphosphate receptor (InsP3R)

B1: calpastatin: a natural calpain antagonist, expressed in cells (protein, UniProt P20810 1-708, looked up)
Calpastatin: MNPTETKAIPVSQQMEGPHLPNKKKHKKQAVKTEPEKKSQSTKLSVVHEKKSQEGKPKEHTEPKSLPKQASDTGSNDAHNKKAVSRSAEQQPSEKSTEPKTKPQDMISAGGESVAGITAISGKPGDKKKEKKSLTPAVPVESKPDKPSGKSGMDAALDDLIDTLGGPEETEEENTTYTGPEVSDPMSSTYIEELGKREVTIPPKYRELLAKKEGITGPPADSSKPIGPDDAIDALSSDFTCGSPTAAGKKTEKEESTEVLKAQSAGTVRSAAPPQEKKRKVEKDTMSDQALEALSASLGTRQAEPELDLRSIKEVDEAKAKEEKLEKCGEDDETIPSEYRLKPATDKDGKPLLPEPEEKPKPRSESELIDELSEDFDRSECKEKPSKPTEKTEESKAAAPAPVSEAVCRTSMCSIQSAPPEPATLKGTVPDDAVEALADSLGKKEADPEDGKPVMDKVKEKAKEEDREKLGEKEETIPPDYRLEEVKDKDGKPLLPKESKEQLPPMSEDFLLDALSEDFSGPQNASSLKFEDAKLAAAISEVVSQTPASTTQAGAPPRDTSQSDKDLDDALDKLSDSLGQRQPDPDENKPMEDKVKEKAKAEHRDKLGERDDTIPPEYRHLLDDNGQDKPVKPPTKKSEDSKKPADDQDPIDALSGDLDSCPSTTETSQNTAKDKCKKAASSSKAPKNGGKAKDSAKTTEETSKPKDD
Q: Which Calcium signaling [8] does the source give for B1 here?
A: protected calcium signaling
